# Assay results from patent US20240197733A1, “A GABA RECEPTOR MODULATOR FOR USE IN THE TREATMENT OF PAIN” (SANIONA A/S, priority 2021, published 2024).
# Tests used:
# [1] = system: electrocutaneous stimulation-induced facial pain rodent model; test: ES-induced facial pain model, mechanical allodynia (Von Frey), prophylactic and acute treatment; type: in vivo, Sprague-Dawley rats
# Procedure: Mechanical pain thresholds were assessed by measuring each rat's facial withdrawal threshold (g) in response to von Frey monofilaments (BioSeb). Starting monofilament: 3.84 (0.6 g), 50% facial withdrawal threshold was interpolated using the up-down method (Chaplan S R et al., 1994). Cutoff monofilament was 4.56 (4 g). Unless stated otherwise, the same materials, methods, and provisions of Example 1 were applied to Example 2. The required quantity of the compound is weighed and dissolved in 100% DMSO in a volume amounting to 5% of the total volume while placed on a stirrer. The weight of the compounds refers to the free base weights. Once the solution becomes clear/transparent, the remaining volume of the vehicle is added (30% HPBCD prepared in MQ water) to final concentrations of 0.03, 0.1, and 0.3 mg/ml for Compound 1. The solutions are kept on a stirrer before- and during administration of the compounds to the animals. The experimenter assessing the behavioral responses to drug administration is blinded to the drug treatment to the animals. Each treatment group is coded according the scheme below: • A. Vehicle (5% DMSO+30% HPBCD): 10 ml/kg • B. Compound 1: 0.3 mg/kg • C. Compound 1: 1 mg/kg • D. Compound 1: 3 mg/kg • F. Compound 1: 3 mg/kg—acute Second baseline measurement was carried out similarly to day 1, For each animal, the average of the two baseline nociceptive measurements was calculated within each pain modality (mechanical, heat- and cold pain), and used as baseline (“Baseline” point on figures). Then all rats in the above respective group (A-D) are given treated as mentioned. Group F received vehicle treatment. Treatment is continued once daily to each group same as Day 2 All rats were treated with respective treatment as per day 3-7. After 1 hr of treatment, each rat was subjected to 1 hr of electrocutaneous stimulation at depilated cheek (0.4 mA intensity, 10 ms duration, 1 s inter-pulse interval). Similar to day 1- and 2, all rats were acclimatized to test equipment followed by measurements of ES-induced facial mechanical- heat- and cold allodynia (“0” time point on figures). After measurement of hypersensitivity threshold, rats from group A-D received the vehicle and three doses of Compound 1 as mentioned above while group F received single acute dose of 3 mg/kg of Compound 1. Treatment effects on pain thresholds were evaluated 2- and 4 hours after administration by assessing mechanical- (Von Frey) and thermal (heat and cold) withdrawal threshold.
# [2] = system: electrocutaneous stimulation-induced facial pain rodent model; test: ES-induced facial pain model, cold thermal allodynia (acetone test), prophylactic and acute treatment; type: in vivo, Sprague-Dawley rats; settings: for development of cold allodynia vs vehicle: day 9 at 0 time
# Procedure: Cold Thermal threshold was assessed by measuring each rat's facial withdrawal latency (seconds) in response to a single 10 uL drop of acetone directly on the depilated and stimulated rat cheek. Cutoff was set at 60 seconds. Facial withdrawal response criteria were as following: burrowing head, shaking of head back-and-forth, excessive blinking, turning head away from experimenter. Unless stated otherwise, the same materials, methods, and provisions of Example 1 were applied to Example 2. The required quantity of the compound is weighed and dissolved in 100% DMSO in a volume amounting to 5% of the total volume while placed on a stirrer. The weight of the compounds refers to the free base weights. Once the solution becomes clear/transparent, the remaining volume of the vehicle is added (30% HPBCD prepared in MQ water) to final concentrations of 0.03, 0.1, and 0.3 mg/ml for Compound 1. The solutions are kept on a stirrer before- and during administration of the compounds to the animals. The experimenter assessing the behavioral responses to drug administration is blinded to the drug treatment to the animals. Each treatment group is coded according the scheme below: • A. Vehicle (5% DMSO+30% HPBCD): 10 ml/kg • B. Compound 1: 0.3 mg/kg • C. Compound 1: 1 mg/kg • D. Compound 1: 3 mg/kg • F. Compound 1: 3 mg/kg—acute Second baseline measurement was carried out similarly to day 1, For each animal, the average of the two baseline nociceptive measurements was calculated within each pain modality (mechanical, heat- and cold pain), and used as baseline (“Baseline” point on figures). Then all rats in the above respective group (A-D) are given treated as mentioned. Group F received vehicle treatment. Treatment is continued once daily to each group same as Day 2 All rats were treated with respective treatment as per day 3-7. After 1 hr of treatment, each rat was subjected to 1 hr of electrocutaneous stimulation at depilated cheek (0.4 mA intensity, 10 ms duration, 1 s inter-pulse interval). Similar to day 1- and 2, all rats were acclimatized to test equipment followed by measurements of ES-induced facial mechanical- heat- and cold allodynia (“0” time point on figures). After measurement of hypersensitivity threshold, rats from group A-D received the vehicle and three doses of Compound 1 as mentioned above while group F received single acute dose of 3 mg/kg of Compound 1. Treatment effects on pain thresholds were evaluated 2- and 4 hours after administration by assessing mechanical- (Von Frey) and thermal (heat and cold) withdrawal threshold.
# [3] = prophylactic 0.3 mg/kg po plus additional dose on day 9, p>0.05 post 2 hrs, p<0.01 post 4 hrs
# [4] = prophylactic 1 mg/kg po plus additional dose on day 9, p<0.01 post 2 hrs, p<0.0001 post 4 hrs
# [5] = prophylactic 3 mg/kg po plus additional dose on day 9, p<0.0001 post 2 hrs and post 4 hrs
structure (smiles),measurement,setting,value
"COc1ncc(-c2cccc(-n3cnc4cc(C(C)(C)O)cnc43)c2)c(OC)n1 [Compound 1, 2-(3-(3-(2,4-dimethoxypyrimidin-5-yl)phenyl)-3H-imidazo[4,5-b]pyridin-6-yl)propan-2-ol]","effect size on mechanical allodynia, acute treatment compared to prophylactic treated animals",[1]; acute 3 mg/kg po,smaller
same,effect on established mechanical allodynia vs vehicle,"[1]; acute 3 mg/kg po on day 9, p<0.01 post 2 hrs, p<0.001 post 4 hrs",reversed the mechanical allodynia
same,effect on established mechanical allodynia vs vehicle,[1]; [3],reversed the mechanical allodynia dose dependently
same,effect on established mechanical allodynia vs vehicle,[1]; [4],reversed the mechanical allodynia dose dependently
same,development of mechanical allodynia vs vehicle,"[1]; prophylactic 3 mg/kg po once daily for 7 days, day 9 at 0 time, p<0.001 vs vehicle",significantly reduced the development of allodynia
same,effect on established mechanical allodynia vs vehicle,[1]; [5],reversed the mechanical allodynia dose dependently
same,effect on established cold allodynia vs vehicle,"[2]; acute 3 mg/kg po on day 9, p<0.001 and p<0.0001 post 2 and 4 hrs",reversed the mechanical allodynia
same,effect on established cold allodynia vs vehicle,[2]; [3],reversed the cold allodynia dose dependently
same,development of cold allodynia vs vehicle,"[2]; prophylactic 1 mg/kg po once daily for 7 days, p<0.05 vs vehicle",significantly reduced the development of cold allodynia
same,effect on established cold allodynia vs vehicle,[2]; [4],reversed the cold allodynia dose dependently
same,development of cold allodynia vs vehicle,"[2]; prophylactic 3 mg/kg po once daily for 7 days, p<0.0001 vs vehicle",significantly reduced the development of cold allodynia
same,effect on established cold allodynia vs vehicle,[2]; [5],reversed the cold allodynia dose dependently
